Measured values reported in patent publication US11420967B2 (priority 2018, dated 2022).
Where two headings read alike, the source gives them in different places.

Legend:
T98G cells = experiment: Antitumor activity in T98G cells in culture (WST-1 cell viability); format: cell-based, human; details: for Emax: read-out: maximal efficacy at killing T98G cells; for increase in EC50 value relative to compound 8: compared with 8 (87 nM)
Description: Unless otherwise noted, maximal efficacies were measured at 10 μM. Data are the mean of at least three independent experiments performed in triplicate.
Cell culture. Cells were cultured in DMEM supplemented with 10% FBS, 100 U/mL penicillin, and 100 μg/mL streptomycin at 37° C. in a 5% CO2 humidified atmosphere. T98G and HepG2 cells (ATCC, Manassas, Va.) were authenticated by ATCC when purchased using human short tandem repeat analysis and maintained in culture for less than 6 months. Tumors were obtained from surgeries performed at the Swedish Medical Center (Seattle, Wash.) according to Institutional Review Board guidelines. Patient samples used in this study were diagnosed as WHO grade IV glioblastoma multiforme. Patient-derived GBM cells were established from the freshly resected tumor tissues and maintained in NeuroCult® NSA medium (Stem Cell Technologies) with B-27 serum-free supplement, 20 ng/mL epidermal growth factor and 20 ng/mL fibroblast growth factor 2 as previously described.
Cell viability. […] Maximal % killing was calculated as the % reduction in cell viability measured at all drug concentration. EC50 values were calculated and reported only when a curve was reliably extrapolated by Prism software. The solvent for all modified carbazoles was DMSO (0.1% final).

tubulin = biological target: T1, tubulin (Sus scrofa, UniProt P02550+P02554); experiment: Tubulin polymerization with fluorescent tubulin (Cytoskeleton Inc.); format: biochemical
T1 construct: purchased Cytoskeleton Inc
T1 sequence (P02554 whole entry): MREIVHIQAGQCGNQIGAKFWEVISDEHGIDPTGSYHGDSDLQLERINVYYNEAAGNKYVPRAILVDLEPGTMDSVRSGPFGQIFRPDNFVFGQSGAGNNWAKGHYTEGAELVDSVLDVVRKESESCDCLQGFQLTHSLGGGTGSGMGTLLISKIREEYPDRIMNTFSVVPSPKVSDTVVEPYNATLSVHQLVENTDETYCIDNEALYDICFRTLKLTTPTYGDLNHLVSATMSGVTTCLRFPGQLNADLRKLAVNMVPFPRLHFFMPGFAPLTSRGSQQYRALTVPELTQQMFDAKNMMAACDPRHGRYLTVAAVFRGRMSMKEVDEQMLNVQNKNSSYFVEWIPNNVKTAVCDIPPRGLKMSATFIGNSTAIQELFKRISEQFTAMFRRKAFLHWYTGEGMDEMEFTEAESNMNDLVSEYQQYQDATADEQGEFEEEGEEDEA
T1 sequence (P02550 whole entry): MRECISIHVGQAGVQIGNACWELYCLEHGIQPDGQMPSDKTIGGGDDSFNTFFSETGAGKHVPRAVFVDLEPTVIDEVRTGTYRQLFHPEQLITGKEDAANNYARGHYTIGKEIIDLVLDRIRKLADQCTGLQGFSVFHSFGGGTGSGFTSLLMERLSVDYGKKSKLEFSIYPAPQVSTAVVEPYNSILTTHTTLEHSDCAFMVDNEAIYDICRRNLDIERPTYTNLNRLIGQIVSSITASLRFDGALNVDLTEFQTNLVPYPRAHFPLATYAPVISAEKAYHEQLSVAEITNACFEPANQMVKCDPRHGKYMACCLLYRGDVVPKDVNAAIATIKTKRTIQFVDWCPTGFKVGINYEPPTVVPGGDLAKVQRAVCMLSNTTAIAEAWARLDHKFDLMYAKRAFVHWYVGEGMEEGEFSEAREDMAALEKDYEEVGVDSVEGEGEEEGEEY
Description: Real-time tubulin polymerization was measured by quantifying increase in fluorescent tubulin assembly in microtubule (RFU) as a function of time (minutes).
Dose-response curves that generated results in Table 5. Tubulin assembly was measured using fluoresent-rescent tubulin in 100 μl according to manufacturer's protocol (Cytoskeleton Inc.).

[1] = tested on: NCI-60 cancer cell line panel; experiment: NCI-60 cancer cell line panel screen (percent growth inhibition); format: cell-based, human
Excerpt: FIG. 4 illustrates analysis of cell-killing activity of select compounds of the disclosure in NCI-60 cancer cell line panel. 8, 20, 27 and 23 (left panel) and taxol, thalipcarpine, and maytansine activity (right panel) in the NCI-60 cell lines.
This screening platform measures the antitumor activities of compounds expressed as percent growth inhibition, which differentiates the compound's activity at inhibiting cell proliferation and reducing cell number (i.e. killing cells). […] Two GBM cells lines included in the NCI-60 panel, SF-295 and SF-539, were among the top ten cell lines that were the most sensitive to 8, 20 and 27 treatments (FIG. 6). Their respective EC50 values of the compounds measured in these cells mirrored their EC50 values measured in T98G cells. Additional cell lines among the top ten cell lines that were sensitive to these three compounds were three cell lines of colon cancer origin: Colo205, HT-29 and HCC-2998 (FIG. 5).

[2] = biological target: T2, colchicine site of tubulin (purified tubulin) (Bos taurus, UniProt P81947+Q6B856); experiment: [3H]colchicine binding to purified tubulin; parameters: species or system bovine; details: read-out: Colchicine Binding % inhibition (mean ± SD) at 5 μM
T2 construct: from tissue; host or cells: native tubulin
T2 sequence (Q6B856 whole entry): as the sequence (P02554 whole entry) above, with A55T, V170M, A296S, V316I, G440E, E441G counted along it
T2 sequence (P81947 whole entry): as the sequence (P02550 whole entry) above, with S136L, G232S, A265I, T340S, E358Q counted along it
Description: (§1) Results are mean±SEM from n=4-5 independent experiments performed in triplicates. […] Results are from 3 independent experiments performed in duplicate.
First, it was determined whether compounds of the disclosure compete for [^3H]colchicine binding to native purified tubulin as previously described.
[^3H]Colchicine binding to purified tubulin and tubulin assembly. [^3H]Colchicine binding to purified tubulin and tubulin assembly (as assessed by turbidity development in purified bovine tubulin solutions) were both measured as previously described.

[3] = biological target: T3, sheared MTs / bovine brain tubulin (Bos taurus, UniProt P81947+Q6B856); experiment: MT-tubulin partitioning (free tubulin pelleting assay, gel quantification); format: biochemical
T3 construct: Bovine brain tubulin was purified, polymerized into MTs and sheared; from tissue; host or cells: bovine brain
T3 sequence (Q6B856 whole entry): as the sequence (P02554 whole entry) above, with A55T, V170M, A296S, V316I, G440E, E441G counted along it
T3 sequence (P81947 whole entry): as the sequence (P02550 whole entry) above, with S136L, G232S, A265I, T340S, E358Q counted along it
Description: as §1
Next tested was their ability to inhibit the assembly of purified tubulin using an in vitro turbidity assay as previously described. […] In this assay, compounds are incubated with sheared MTs at 37° C. and the resulting amounts of tubulin dimers (free tubulin) and polymer (MT) after 15 min is measured on polyacrylamide gels.
MT-tubulin partitioning. Bovine brain tubulin was purified, polymerized into MTs and sheared as previously described. Sheared MTs and drugs were incubated at 37° C. for 15 min and centrifuged for 10 min at 42,000 rpm at 37° C. prior to separation into supernatants containing free tubulin and pellets containing polymerized MTs as previously described. […] Peak intensities were quantified using ImageJ.

[4] = biological target: T4, cannabinoid CB1 receptor (hCB1) (Homo sapiens, UniProt P21554); experiment: β-arrestin recruitment in hCB1-transfected HEK293 cells; format: cell-based; details: β-arrestin recruitment
T4 construct: expressed in transfected cells; host or cells: HEK293
T4 sequence (P21554 whole entry): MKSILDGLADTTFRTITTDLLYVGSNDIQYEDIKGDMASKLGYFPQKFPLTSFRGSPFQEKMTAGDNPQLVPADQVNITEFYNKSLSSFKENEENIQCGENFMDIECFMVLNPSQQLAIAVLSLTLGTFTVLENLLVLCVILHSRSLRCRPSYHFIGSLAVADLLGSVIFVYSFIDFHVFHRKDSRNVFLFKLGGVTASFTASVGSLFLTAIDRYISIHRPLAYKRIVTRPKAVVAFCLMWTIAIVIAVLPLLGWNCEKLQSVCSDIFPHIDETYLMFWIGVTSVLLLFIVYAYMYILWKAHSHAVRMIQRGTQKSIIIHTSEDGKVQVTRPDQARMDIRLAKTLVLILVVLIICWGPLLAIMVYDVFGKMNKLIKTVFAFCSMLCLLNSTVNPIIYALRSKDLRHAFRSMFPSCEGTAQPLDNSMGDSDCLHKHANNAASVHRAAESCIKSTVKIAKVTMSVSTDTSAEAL

[5] = biological target: T5, cannabinoid CB2 receptor (hCB2) (Homo sapiens, UniProt P34972); experiment: β-arrestin recruitment in hCB2-transfected HEK293 cells; format: cell-based
T5 construct: expressed in transfected cells; host or cells: HEK293
T5 sequence (P34972 whole entry): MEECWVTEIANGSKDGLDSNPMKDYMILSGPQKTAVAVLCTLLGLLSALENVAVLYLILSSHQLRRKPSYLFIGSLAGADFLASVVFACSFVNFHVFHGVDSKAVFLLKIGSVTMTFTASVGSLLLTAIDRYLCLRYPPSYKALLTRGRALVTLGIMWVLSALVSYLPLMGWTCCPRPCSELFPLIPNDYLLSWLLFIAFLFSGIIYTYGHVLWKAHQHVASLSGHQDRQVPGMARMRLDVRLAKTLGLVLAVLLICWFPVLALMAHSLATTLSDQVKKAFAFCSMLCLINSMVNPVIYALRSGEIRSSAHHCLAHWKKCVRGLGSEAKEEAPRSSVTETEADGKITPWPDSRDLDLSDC

[6] = Homo sapiens, T98G, T98G cells, rounded values of the discussion
[7] = Homo sapiens, T98G cells, WST-1, 72 hours after treatment, read-out: EC50
[8] = Homo sapiens, T98G cells, rounded values of the discussion

SMILES	EC50 (T98G cells; [7])	antitumor activity in T98G cells (in words) (T98G cells; T98G cells)	maximal killing (% ± SEM) (T98G cells; T98G cells, at 10 μM, 72 hours)	increase in EC50 value relative to compound 8 (T98G cells; T98G cells)	effect on T98G cell viability (in words) (T98G cells; T98G cells)	Emax (T98G cells; [8])	further results
COc1ccc(/C=C\c2cc(OC)c(OC)c(OC)c2)cc1O [combretastatin A-4, reference compound]							EC50 (T98G cells; T98G cells, WST-1, 72 hours after treatment, read-out: EC50): 0.0006 µM; maximal killing (T98G cells; T98G cells, at 10 nM, 72 hours): 30.4%±2.1
Cc1ccc(C(=O)c2ccc3c(c2)c2ccccc2n3CC(F)(F)F)c2ccccc12 [Compound 18, 3-(4-methylnaphthalene-1-carbonyl)-9-(2,2,2-trifluoroethyl)-9H-carbazole]	5.6 µM	only active at concentrations above five micromolar	35.6%	64 fold			Emax (T98G cells; [6]): 35 to 45%; maximal efficacy at killing T98G cells (T98G cells; T98G cells, rounded values of the discussion): 35%
CCn1c2ccccc2c2cc(C(=O)c3cccc4ccccc34)ccc21 [Compound 14, 9-ethyl-3-(naphthalene-1-carbonyl)-9H-carbazole]	1.7 µM		72.0%	20 fold			Emax (T98G cells; [6]): 72%
CCn1c2ccccc2c2cc(C(=O)N3CCN(C)CC3)ccc21 [Compound 9, 9-ethyl-3-(4-methylpiperazine-1-carbonyl)-9H-carbazole]	> 10 µM	only active at concentrations above five micromolar	13.2%		did not affect T98G cell viability significantly		
CCn1c2ccccc2c2cc(C(=O)c3cccc4c3NCCC4)ccc21 [Compound 24, 9-ethyl-3-(1,2,3,4-tetrahydroquinoline-8-carbonyl)-9H-carbazole]	> 10 µM	only active at concentrations above five micromolar			did not affect T98G cell viability significantly		maximal killing (% ± SEM) (T98G cells; T98G cells, at 100 nM, 72 hours): −18.0%
CCn1c2ccccc2c2cc(C(=O)c3ccc(F)cc3)ccc21 [Compound 11, 9-ethyl-3-(4-fluorobenzoyl)-9H-carbazole]	8 µM		54.8%			55%	
CCn1c2ccccc2c2cc(C(O)c3cccc4ncccc34)ccc21 (single isomer, unassigned; (+)) [(+)-19, (+)-(9-ethyl-9H-carbazol-3-yl)(quinolin-5-yl)methanol]							IC50 (tubulin; fluorescent tubulin, 100 μl): 0.64 µM
CCn1c2ccccc2c2cc(C(=O)c3ccc(C)cc3)ccc21 [Compound 12, 9-ethyl-3-(4-methylbenzoyl)-9H-carbazole]	0.993 µM			11 fold		84%	maximal killing (% ± SEM) (T98G cells; T98G cells, at 3 μM, 72 hours): 83.6%
CCCn1c2ccccc2c2cc(C(=O)c3ccc(C)c4ccccc34)ccc21 [Compound 16, 9-propyl-3-[(4-methylnaphthalen-1-yl)carbonyl]-9H-carbazole]	> 10 µM	only active at concentrations above five micromolar	16.3%	115 fold	did not affect T98G cell viability significantly		
CCn1c2ccccc2c2cc(C(=O)c3ccc(Cl)cc3)ccc21 [Compound 10, 3-(4-chlorobenzoyl)-9-ethyl-9H-carbazole]	1.5 µM		71.1%			61%	
Cc1ccc(C(=O)n2c3ccccc3c3ccccc32)c2ccccc12 [Compound 28, 9-(4-methylnaphthalene-1-carbonyl)-9H-carbazole]	0.957 µM		89.1%			89%	
CC(=O)O[C@H]1C(=O)[C@@]2(C)[C@H]([C@H](OC(=O)c3ccccc3)[C@]3(O)C[C@H](OC(=O)[C@H](O)[C@@H](NC(=O)c4ccccc4)c4ccccc4)C(C)=C1C3(C)C)[C@]1(OC(C)=O)CO[C@@H]1C[C@@H]2O [paclitaxel, reference compound]							maximal killing (T98G cells): 63.2%±2.5; EC50 (T98G cells; Homo sapiens, T98G, 72 h): 148 µM; effect on MT in real-time tubulin polymerization (in words) (tubulin; Paclitaxel 10 μM, 19 1 μM): stabilizes MT
CCn1c2ccccc2c2cc(C(=O)c3cccc4c3CCCN4)ccc21 [Compound 23, (9-ethyl-9H-carbazol-3-yl)(1,2,3,4-tetrahydroquinolin-5-yl)methanone]	> 10 µM	only active at concentrations above five micromolar			did not affect T98G cell viability significantly		maximal killing (% ± SEM) (T98G cells; T98G cells, at 3 μM, 72 hours): −17.0%; viability at 10 µM ([1]; Homo sapiens, 48 h, read-out: growth inhibition: mean): 102%; effect on proliferation and viability of NCI-60 cell lines (in words) ([1]; NCI-60, 10 μM, 48 hours): did not significantly affect the proliferation and viability of any of the cell lines; inhibition at 5 µM [2]: 4 ± 1%; IC50 ([3]; MT-Tubulin Partitioning IC50 (μM) (mean), sheared MTs at 37° C., 15 min): > 20 µM; effect on MT assembly/disassembly, MT-free tubulin partitioning (in words) ([3]; free tubulin pelleting assay): does not affect MT assembly; Agonist efficacy (% activation) CB1 [4]: −2 % activation; Antagonist efficacy (% activation) CB1 [4]: 16 % activation; EC50 ([4]; antagonist mode, read-out: Antagonist CB1, value in parentheses (EC50)): 0.183 µM; EC50 [5]: 0.067 µM; Agonist efficacy (% activation) CB2 ([5]; β-arrestin recruitment): 2 % activation; Antagonist efficacy (% activation) CB2 ([5]; β-arrestin recruitment): 20 % activation
CCn1c2ccccc2c2cc(C(=O)Cc3ccccc3)ccc21 [Compound 13, 1-(9-ethyl-9H-carbazol-3-yl)-2-phenylethan-1-one]	> 10 µM	only active at concentrations above five micromolar		more than 115 fold	did not affect T98G cell viability significantly		maximal killing (% ± SEM) (T98G cells; T98G cells, at 3 μM, 72 hours): 14.0%
CCCCCCC(C)(C)c1ccc([C@@H]2C[C@H](O)CC[C@H]2CCCO)c(O)c1 [positive control, CP55940, reference compound]							Agonist efficacy (% activation) CB1 [4]: 1940 % activation; Antagonist efficacy (% activation) CB1 [4]: 97 % activation; Antagonist efficacy (% activation) CB2 ([5]; β-arrestin recruitment): 92 % activation
CCn1c2ccccc2c2cc(C(=O)c3cccc4cccnc34)ccc21 [Compound 22, 9-ethyl-3-(quinoline-8-carbonyl)-9H-carbazole]	8.8 µM		60.0%			60%	reduction of maximal antitumor efficacy relative to compound 25 (T98G cells): 96%
